{"source": "patent US8192962B2", "about": "“Processes for detecting toxic substances” (Daikin Industries, Ltd., priority 2001, dated 2012)", "system": "Unknown protein yeast genes", "experiment": "DNA chip mRNA expression in yeast, unknown protein yeast genes (Table 1)", "type": "cell-based, Saccharomyces cerevisiae S288C", "in_short": "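Ratios compare mRNA levels in stressed and control S. cerevisiae. Each toxicant was applied for two hours to log-phase cultures at 25° C. at a sub-lethal, growth-inhibiting level; fluorescent cDNA (Cy3- or Cy5-dUTP) was hybridized to a genome-wide yeast chip for over 12 h at 65° C.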"}
{"smiles": "C=CC=O", "note": "[(14), acrolein]", "values": [{"measurement": "The level of expressed mRNA in the presence of chemical substance/The level of expressed mRNA in the absence of chemical substance", "setting": "yeast gene YKL195W, incubated two hours with chemical substance", "result": 1.6}, {"measurement": "The level of expressed mRNA in the presence of chemical substance/The level of expressed mRNA in the absence of chemical substance", "setting": "yeast gene YKR091W, incubated two hours with chemical substance", "result": 1.9}, {"measurement": "The level of expressed mRNA in the presence of chemical substance/The level of expressed mRNA in the absence of chemical substance", "setting": "yeast gene YLR054C, incubated two hours with chemical substance", "result": 1.1}, {"measurement": "The level of expressed mRNA in the presence of chemical substance/The level of expressed mRNA in the absence of chemical substance", "setting": "yeast gene YLR149C, incubated two hours with chemical substance", "result": 1.2}, {"measurement": "The level of expressed mRNA in the presence of chemical substance/The level of expressed mRNA in the absence of chemical substance", "setting": "yeast gene YLR152C, incubated two hours with chemical substance", "result": 1.2}, {"measurement": "The level of expressed mRNA in the presence of chemical substance/The level of expressed mRNA in the absence of chemical substance", "setting": "yeast gene YLR194C, incubated two hours with chemical substance", "result": 1.2}, {"measurement": "The level of expressed mRNA in the presence of chemical substance/The level of expressed mRNA in the absence of chemical substance", "setting": "yeast gene YLR297W", "result": 2.3}, {"measurement": "The level of expressed mRNA in the presence of chemical substance/The level of expressed mRNA in the absence of chemical substance", "setting": "yeast gene YLR324W, incubated two hours with chemical substance", "result": 1.4}, {"measurement": "The level of expressed mRNA in the presence of chemical substance/The level of expressed mRNA in the absence of chemical substance", "setting": "yeast gene YLR350W, incubated two hours with chemical substance", "result": 2.8}, {"measurement": "The level of expressed mRNA in the presence of chemical substance/The level of expressed mRNA in the absence of chemical substance", "setting": "yeast gene YLR387C, incubated two hours with chemical substance", "result": 1.7}, {"measurement": "The level of expressed mRNA in the presence of chemical substance/The level of expressed mRNA in the absence of chemical substance", "setting": "yeast gene YLR460C", "result": 3.5}, {"measurement": "The level of expressed mRNA in the presence of chemical substance/The level of expressed mRNA in the absence of chemical substance", "setting": "yeast gene YML117W, incubated two hours with chemical substance", "result": 0.8}, {"measurement": "The level of expressed mRNA in the presence of chemical substance/The level of expressed mRNA in the absence of chemical substance", "setting": "yeast gene YMR009W, incubated two hours with chemical substance", "result": 1.9}, {"measurement": "The level of expressed mRNA in the presence of chemical substance/The level of expressed mRNA in the absence of chemical substance", "setting": "yeast gene YMR067C, incubated two hours with chemical substance", "result": 1.5}, {"measurement": "The level of expressed mRNA in the presence of chemical substance/The level of expressed mRNA in the absence of chemical substance", "setting": "yeast gene YMR090W", "result": 6.5}, {"measurement": "The level of expressed mRNA in the presence of chemical substance/The level of expressed mRNA in the absence of chemical substance", "setting": "yeast gene YMR095C, incubated two hours with chemical substance", "result": 2.2}, {"measurement": "The level of expressed mRNA in the presence of chemical substance/The level of expressed mRNA in the absence of chemical substance", "setting": "yeast gene YMR097C, incubated two hours with chemical substance", "result": 2.1}, {"measurement": "The level of expressed mRNA in the presence of chemical substance/The level of expressed mRNA in the absence of chemical substance", "setting": "yeast gene YMR102C, incubated two hours with chemical substance", "result": 0.7}, {"measurement": "The level of expressed mRNA in the presence of chemical substance/The level of expressed mRNA in the absence of chemical substance", "setting": "yeast gene YMR107W, incubated two hours with chemical substance", "result": 8.1}, {"measurement": "The level of expressed mRNA in the presence of chemical substance/The level of expressed mRNA in the absence of chemical substance", "setting": "yeast gene YMR180C, incubated two hours with chemical substance", "result": 1.7}, {"measurement": "The level of expressed mRNA in the presence of chemical substance/The level of expressed mRNA in the absence of chemical substance", "setting": "yeast gene YMR184W, incubated two hours with chemical substance", "result": 1.5}, {"measurement": "The level of expressed mRNA in the presence of chemical substance/The level of expressed mRNA in the absence of chemical substance", "setting": "yeast gene YMR191W, incubated two hours with chemical substance", "result": 1.5}, {"measurement": "The level of expressed mRNA in the presence of chemical substance/The level of expressed mRNA in the absence of chemical substance", "setting": "yeast gene YMR295C, incubated two hours with chemical substance", "result": 1.3}, {"measurement": "The level of expressed mRNA in the presence of chemical substance/The level of expressed mRNA in the absence of chemical substance", "setting": "yeast gene YMR316W, incubated two hours with chemical substance", "result": 1.3}, {"measurement": "The level of expressed mRNA in the presence of chemical substance/The level of expressed mRNA in the absence of chemical substance", "setting": "yeast gene YNL044W, incubated two hours with chemical substance", "result": 1.2}, {"measurement": "The level of expressed mRNA in the presence of chemical substance/The level of expressed mRNA in the absence of chemical substance", "setting": "yeast gene YNL074C, incubated two hours with chemical substance", "result": 0.6}, {"measurement": "The level of expressed mRNA in the presence of chemical substance/The level of expressed mRNA in the absence of chemical substance", "setting": "yeast gene YNL092W, incubated two hours with chemical substance", "result": 1.2}, {"measurement": "The level of expressed mRNA in the presence of chemical substance/The level of expressed mRNA in the absence of chemical substance", "setting": "yeast gene YNL115C, incubated two hours with chemical substance", "result": 1.0}, {"measurement": "The level of expressed mRNA in the presence of chemical substance/The level of expressed mRNA in the absence of chemical substance", "setting": "yeast gene YNL156C, incubated two hours with chemical substance", "result": 1.4}, {"measurement": "The level of expressed mRNA in the presence of chemical substance/The level of expressed mRNA in the absence of chemical substance", "setting": "yeast gene YNL234W, incubated two hours with chemical substance", "result": 1.5}, {"measurement": "The level of expressed mRNA in the presence of chemical substance/The level of expressed mRNA in the absence of chemical substance", "setting": "yeast gene YNL281W, incubated two hours with chemical substance", "result": 1.2}, {"measurement": "The level of expressed mRNA in the presence of chemical substance/The level of expressed mRNA in the absence of chemical substance", "setting": "yeast gene YNL305C, incubated two hours with chemical substance", "result": 1.3}, {"measurement": "The level of expressed mRNA in the presence of chemical substance/The level of expressed mRNA in the absence of chemical substance", "setting": "yeast gene YNR068C, incubated two hours with chemical substance", "result": 1.8}, {"measurement": "The level of expressed mRNA in the presence of chemical substance/The level of expressed mRNA in the absence of chemical substance", "setting": "yeast gene YOL032W, incubated two hours with chemical substance", "result": 1.3}, {"measurement": "The level of expressed mRNA in the presence of chemical substance/The level of expressed mRNA in the absence of chemical substance", "setting": "yeast gene YOL036W, incubated two hours with chemical substance", "result": 1.0}, {"measurement": "The level of expressed mRNA in the presence of chemical substance/The level of expressed mRNA in the absence of chemical substance", "setting": "yeast gene YOL047C, incubated two hours with chemical substance", "result": 1.2}, {"measurement": "The level of expressed mRNA in the presence of chemical substance/The level of expressed mRNA in the absence of chemical substance", "setting": "yeast gene YOL071W, incubated two hours with chemical substance", "result": 2.5}, {"measurement": "The level of expressed mRNA in the presence of chemical substance/The level of expressed mRNA in the absence of chemical substance", "setting": "yeast gene YOL082W, incubated two hours with chemical substance", "result": 1.4}, {"measurement": "The level of expressed mRNA in the presence of chemical substance/The level of expressed mRNA in the absence of chemical substance", "setting": "yeast gene YOL083W, incubated two hours with chemical substance", "result": 1.4}, {"measurement": "The level of expressed mRNA in the presence of chemical substance/The level of expressed mRNA in the absence of chemical substance", "setting": "yeast gene YOL117W, incubated two hours with chemical substance", "result": 1.7}, {"measurement": "The level of expressed mRNA in the presence of chemical substance/The level of expressed mRNA in the absence of chemical substance", "setting": "yeast gene YOL131W, incubated two hours with chemical substance", "result": 2.3}, {"measurement": "The level of expressed mRNA in the presence of chemical substance/The level of expressed mRNA in the absence of chemical substance", "setting": "yeast gene YOL150C", "result": 5.7}, {"measurement": "The level of expressed mRNA in the presence of chemical substance/The level of expressed mRNA in the absence of chemical substance", "setting": "yeast gene YOL162W, incubated two hours with chemical substance", "result": 1.4}, {"measurement": "The level of expressed mRNA in the presence of chemical substance/The level of expressed mRNA in the absence of chemical substance", "setting": "yeast gene YOR019W, incubated two hours with chemical substance", "result": 1.4}, {"measurement": "The level of expressed mRNA in the presence of chemical substance/The level of expressed mRNA in the absence of chemical substance", "setting": "yeast gene YOR197W, incubated two hours with chemical substance", "result": 0.7}, {"measurement": "The level of expressed mRNA in the presence of chemical substance/The level of expressed mRNA in the absence of chemical substance", "setting": "yeast gene YPL087W, incubated two hours with chemical substance", "result": 1.2}, {"measurement": "The level of expressed mRNA in the presence of chemical substance/The level of expressed mRNA in the absence of chemical substance", "setting": "yeast gene YPL196W, incubated two hours with chemical substance", "result": 1.6}, {"measurement": "The level of expressed mRNA in the presence of chemical substance/The level of expressed mRNA in the absence of chemical substance", "setting": "yeast gene YPL206C, incubated two hours with chemical substance", "result": 1.1}, {"measurement": "The level of expressed mRNA in the presence of chemical substance/The level of expressed mRNA in the absence of chemical substance", "setting": "yeast gene YPL222W, incubated two hours with chemical substance", "result": 1.1}, {"measurement": "The level of expressed mRNA in the presence of chemical substance/The level of expressed mRNA in the absence of chemical substance", "setting": "yeast gene YPR023C, incubated two hours with chemical substance", "result": 0.9}, {"measurement": "The level of expressed mRNA in the presence of chemical substance/The level of expressed mRNA in the absence of chemical substance", "setting": "yeast gene YPR151C, incubated two hours with chemical substance", "result": 1.4}]}
